Patent publication US12031989B2, “Preparing live microbial samples and microorganisms for subsequent mass spectrometric measurement and evaluation” (Bruker Daltonics GmbH & Co. KG, priority 2016, dated 2024)

Experiments:
[1] = tested on: Klebsiella pneumoniae meropenem-resistant strain; test: resistance/sensitivity test directly on MALDI-TOF MS sample support, meropenem-resistant strain; type: cell-based
From the text: (§1) The antibiotic (for example an antibiotic solution in a liquid nutrient medium) can be mixed with a microorganism suspension either in a cultivation vessel or directly on a spot of a MALDI-TOF MS support 12 (hatched droplet 14*). In addition, this is generally accompanied by a growth control on a different section of the MALDI-TOF MS support, i.e. a cultivation of the microorganism suspension in a nutrient medium without the addition of an antibiotic (unhatched droplet 14). It is preferable for a very small quantity of the suspension to be applied to the spots; for example 1-10 microliters. The sensitivity test thus takes place in microdroplets 14, 14*, preferably with a volume of around 4-8 microliters. The use of even smaller volumes is also possible in principle, for example in the form of nanodroplets. The initial microorganism concentration in the droplets 14, 14* can be slightly below the detection limit of a conventional MALDI time-of-flight mass spectrometer with linear flight path, and thus amount to around 5×10^5 cfu per milliliter, for example (cfu—colony forming unit). FIG. 3A.
In the example shown, the MALDI-TOF MS support 12 with the test solution is subsequently cultured in a so-called “humidity chamber” 16 in an incubator at high humidity. The purpose of the humidity chamber 16 is to prevent the droplets 14, 14* from evaporating prematurely during the incubation, and it can take the form of a box with a lid, made of plastic, for example, into which the MALDI-TOF MS support can easily be placed. […] A small quantity of liquid can be put in the humidity chamber 16, for example 0.1 to 5 milliliters of water or NaCl solution to humidify the atmosphere in the chamber 16 and thus set a high ambient humidity (nearly 100%) so that the evaporation of the droplets of nutrient medium 14, 14* themselves is prevented. FIG. 3B.
In the droplets 14, 14*, a high concentration of the microorganisms in a small volume of liquid is rapidly achieved during incubation (as long as the growth is not inhibited by antimicrobial substances). […]

[2] = tested on: Klebsiella pneumoniae meropenem-sensitive strain; test: resistance/sensitivity test directly on MALDI-TOF MS sample support, meropenem-sensitive strain; type: cell-based
From the text: as §1, with “The initial microorganism concentration in the droplets 14, 14* can be slightly below the detection limit of a conventional MALDI time-of-flight mass spectrometer with linear flight path, and thus amount to around 5×10^5 cfu per milliliter, for example (cfu—colony forming unit). FIG. 3A.” left out
In the example shown, the MALDI-TOF MS support 12 with the test solution is subsequently cultured in a so-called “humidity chamber” 16 in an incubator at high humidity. […] A small quantity of liquid can be put in the humidity chamber 16, for example 0.1 to 5 milliliters of water or NaCl solution to humidify the atmosphere in the chamber 16 and thus set a high ambient humidity (nearly 100%) so that the evaporation of the droplets of nutrient medium 14, 14* themselves is prevented. […]

[3] = 2 micrograms per milliliter, 6 microliter droplet, four hours incubation, MALDI Biotyper evaluation

Structure (SMILES): C[C@@H](O)[C@H]1C(=O)N2C(C(=O)O)=C(S[C@@H]3CN[C@H](C(=O)N(C)C)C3)[C@H](C)[C@H]12 [meropenem]
- bacterial growth in the presence of meropenem (specific mass signal signatures vs growth control) [1, 3]: not inhibited
- relative growth, median ([1]; 4 microliter droplet, measurements occasionally below threshold, FIG. 4B): greater than 0.4
- relative growth ([1]; droplet sizes 2, 6, 8 and 10 microliters, significant growth threshold 0.4, FIG. 4B): greater than 0.4
- bacterial growth in the presence of meropenem (specific mass signal signatures vs growth control) [2, 3]: cannot multiply (or scarcely)
- relative growth ([2]; droplet sizes 2, 4, 6, 8 and 10 microliters, significant growth threshold 0.4, FIG. 4B): < 0.4
